This passage reports IC50 results from ChEMBL document CHEMBL1157217, “Terpenoid indole alkaloids from Winchia calophylla” (J Nat Prod, 2006).

The assay deals with A549. Briefly: Cytotoxicity against human A549 cells by SRB assay. The format is functional, cell-based. In general terms: In SRB staining, fixed cells bind dye roughly in proportion to their protein.

In turn, `C/C=C1/CN2CC[C@]34C(=C(C(=O)OC)[C@H]1C[C@H]23)Nc1ccccc14` [AKUAMMICINE] showed an IC50 of 15 µM.
The molecule `COC(=O)C1=C2Nc3c(OC)cccc3[C@@]23CCN2C[C@@H]([C@H](C)O)[C@@H]1C[C@H]23` yielded an IC50 of 11.5 µM. This IC50 and that of the molecule before are within 1.5-fold of each other.

The IC50 is the concentration needed to halve the response being measured. A low value points to greater potency.
